Assay results: PubChem BioAssay (NCI)
Values joined by “and” are separate entries in the source; they are usually repeats but may differ in a detail not shown here. Identical values can stand only once.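 1) Cells in 96-well plates. 2) Compound, 48 h, 5 concentrations. 3) Linear interpolation between surrounding doses. 4) Unreached endpoint = highest concentration. Abbreviation: GI50, concentration required for 50% inhibition of growth. Definition used: TGI = concentration required for complete inhibition of growth.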

Assays:
Test in all cases: NCI-60 cell line screen, 48 h
T-47D breast = system: T-47D breast
MDA-MB-435 = system: MDA-MB-435
BT-549 breast = system: BT-549 breast
NCI/ADR-RES ovarian = system: NCI/ADR-RES ovarian
MDA-MB-231 breast = system: MDA-MB-231 breast
DU-145 prostate = system: DU-145 prostate

SMILES | GI50 (T-47D breast) | TGI (T-47D breast) [µM] | GI50 (MDA-MB-435) | TGI (MDA-MB-435) | GI50 (BT-549 breast) [µM] | TGI (BT-549 breast) [µM] | GI50 (NCI/ADR-RES ovarian) | TGI (NCI/ADR-RES ovarian) | GI50 (MDA-MB-231 breast) [µM] | TGI (MDA-MB-231 breast) [µM] | GI50 (DU-145 prostate) | TGI (DU-145 prostate) [µM]
N/C(=N\O)c1ncc(-c2ccc(C(F)(F)F)cc2)c(NC2CCCCCC2)n1 | 6.89 µM and 3.59 µM | 16.8 | 3.76 µM | 17 µM | 4.54 | 18.2 | 4.41 µM and 0.593 µM | 13.4 µM | 3.96 | 19.3 | 6.78 µM and 3.38 µM | 16.1
CCCNc1nc(N(C)O)nc(N(C)O)n1 | 3.9 µM | > 100 | 4.95 µM | > 100 µM | 3.34 | > 29.9 | 2.15 µM | > 100 µM | 5.31 | > 100 | 1.46 µM | > 30.1
N#Cc1ccc(Oc2nccc(-c3c(-c4ccc(F)cc4)ncn3C3CCNCC3)n2)cc1 | > 25 µM | > 25 | > 15.1 µM | > 25 µM | 24.9 | > 25 | > 25 µM | > 25 µM | > 22.3 | > 25 | > 25 µM | > 25
COc1ccc(CN2c3ccccc3Sc3ccccc32)cc1F | – | – | 0.198 µM | 0.469 µM | 1.34 | > 23.4 | 0.322 µM | – | 0.917 | > 88.1 | 0.477 µM | > 100
CC1=C(N2CC2)C(=O)C(CO)=C(N2CC2)C1=O | – | 0.529 | 0.0386 µM and 0.0393 µM | 0.169 µM and 0.151 µM | – | 1.95 | 0.0161 µM | 0.0671 µM and 0.0182 µM | 0.14 | – | – | 1.3
COC1=C(OC)C(=O)C(/C=C(\C)C(=O)O)=C(C)C1=O | > 100 µM | > 100 | > 100 µM | > 100 µM | > 100 | > 100 | > 100 µM | > 100 µM | > 100 | > 100 | > 100 µM | > 100
COc1cc(/C=C/C(=O)C(=Cc2ccc(F)c(F)c2)C(=O)/C=C/c2ccc(O)c(OC)c2)ccc1O | 2.31 µM | 7.7 | 2.93 µM | 10.2 µM | 2.68 | 7.13 | 4.06 µM | > 100 µM | 3.48 | 16.7 | 2.1 µM | 5.27
CC1C2Cc3ccc(O)cc3C1(C)CCN2C (stereo unspecified) | – | > 100 | – | > 100 µM | – | – | – | > 100 µM | – | > 100 | – | > 100
O=C(N[C@H](c1ccc(Cl)c(Cl)c1)C1CNC1)c1ccc2cnccc2c1 | 2.29 µM | 13.5 | 2.84 µM | 11.8 µM | 2.64 | 12 | 15.6 µM | 30.2 µM | 3.36 | 15 | 8.52 µM | 21
COc1ccc(Nc2c3ccccc3nc3c2c2ccccc2n3C)cc1 | – | – | 30.5 µM | > 100 µM | 11 | 43.4 | 34 µM | > 100 µM | 34.8 | > 100 | 15.6 µM | > 100
COc1ccc2c(c1)C(=O)c1c-2n(CCCN=[N+]=[N-])c(=O)c2ccccc12 | 25.9 µM | > 100 | 65.2 µM | > 100 µM | 89.9 | > 100 | 91.2 µM | > 100 µM | > 100 | > 100 | 61.5 µM | > 100
CCN1CCN(CCOc2ccc(CNc3ccc4nc(CCC5CCCCC5)[nH]c4c3)cc2)CC1 | 1.93 µM | 5.41 | 1.78 µM | 3.73 µM | 1.58 | 3.04 | 3.11 µM | 11.2 µM | 1.6 | 3.11 | 3.91 µM | 14
Clc1ccc(-c2nc3c(-c4ccc(Cl)cc4)nc(-c4ccccc4)cn3c2-c2ccc(Cl)cc2)cc1 | > 50 µM | > 50 | > 50 µM | > 50 µM | 14.2 | > 50 | > 50 µM | > 50 µM | 27.9 | > 50 | > 50 µM | > 50
C=C1CC[C@@H]2C(C)(C)[C@@H](O)CC[C@@]2(C)[C@@H]1COc1ccc2ccc(=O)oc2c1 | 5.81 µM | 32.5 | 13.6 µM | 27.6 µM | 6.65 | 20.1 | 10.5 µM | 30.8 µM | 15.4 | 31.8 | 17.3 µM | 48.2
Cc1cccc(CN(C)c2ccc(CO)c(Cl)c2)c1 | 1.04 µM | 7.66 | 17.2 µM | 49.3 µM | 15.8 | 42.9 | 17.2 µM | 59.3 µM | 21.9 | > 86.2 | 30.8 µM | > 100
CCCCCCN(CCCCCC)CCCNc1nccc2ccccc12 | – | – | 1.57 µM | 3.06 µM | 1.79 | 3.47 | 1.6 µM | 3.37 µM | 1.44 | 2.91 | 3.42 µM | 11.9
Cc1ccc(-n2c3c(c4c(CN5CCCCC5)c(O)ccc42)CCc2ccccc2C3=O)cc1 | > 100 µM | > 100 | > 100 µM | > 100 µM | > 100 | > 100 | 71.2 µM | > 100 µM | 30.7 | > 100 | > 100 µM | > 100
O=C1NC(=NCC(CO)c2ccccc2)S/C1=C\c1ccc2ncccc2c1 (stereo unspecified) | 25 µM | > 25 | 11.3 µM | > 25 µM | 13.3 | > 25 | > 25 µM | > 25 µM | > 25 | > 25 | 18.4 µM | > 25
CCCc1cc(=O)oc2c(C(=O)CC(C)C)c(O)c(CC=C(C)C)c(O)c12 | 9.33 µM | 40.3 | 11.8 µM | 43.1 µM | 7.85 | 42.4 | 8.6 µM | 48.1 µM | 9.81 | 24.7 | 14.4 µM | > 50
O=C(CCCn1c2c(sc3ncccc32)c(=O)n2nnc(-c3ccccc3)c12)NCCc1cnc[nH]1 | 1.87 µM | 21.6 | 0.489 µM | 20.5 µM | – | – | 34.1 µM | > 100 µM | 17.8 | 34.6 | 2.77 µM | 19.7
COC(=O)/C(C#N)=C\N1CCN(C(=O)c2ccco2)C1=S | 4.63 µM | 67.1 | 6.82 µM | 46.5 µM | 4.16 | 13.6 | 24 µM | 58.4 µM | 4.17 | 15.8 | 3.54 µM | 14
c1cncc(CNc2ccccc2-c2nnc(Nc3ccc4c(c3)OCO4)o2)c1 | 0.22 µM | > 100 | – | – | 0.604 | > 100 | 0.0291 µM | 0.142 µM | 0.343 | > 100 | 0.197 µM | > 100
Nc1nc(-c2ccccc2)c(-c2ccccc2)c(-c2nc(N)nc(-c3ccccc3)c2-c2ccccc2)n1 | – | > 100 | – | > 100 µM | – | > 100 | – | > 100 µM | – | > 100 | – | > 100
Cn1cc(-c2csc(-c3c[nH]c4ncccc34)n2)c2cc(Br)cnc21 | 1.8 µM | > 100 | 3.17 µM | 32.8 µM | 20.5 | > 100 | 3.89 µM | > 100 µM | 3.02 | > 100 | 3.51 µM | > 100
Fc1ccc(-c2nc(-c3nc4ccc(Cl)cc4[nH]3)cc3c2[nH]c2ccccc23)cc1 | 2.68 µM | 20.9 | 3.59 µM | 14.3 µM | 4.62 | 18.7 | 3.42 µM | 28.3 µM | 2.88 | 13.6 | 3.41 µM | 12
O=C1C2=C(C(=O)c3c(O)ccc(O)c31)N(c1ccc(N3CCOCC3)nc1)Cc1ccccc1O2 | 0.205 µM | 0.9 | 0.321 µM | 1.05 µM | 0.249 | 0.845 | 0.401 µM | 13 µM | 0.243 | 0.814 | 0.326 µM | 1.03
COc1cccc(Nc2nc(NNC(=O)Cc3ccccc3)nc(NNC(=O)c3ccncc3)n2)c1 | – | – | – | > 100 µM | – | – | > 100 µM | > 100 µM | > 100 | > 100 | > 100 µM | > 100
O=C(Oc1cccnc1)c1ccccc1Nc1ccnc(C(F)(F)F)c1 | 23 µM | 51.5 | – | – | 0.104 | 2.18 | 0.186 µM | > 100 µM | 0.233 | > 62.2 | 0.273 µM | 3.17
Cc1ccc(/C=C(\C#N)n2nnc3cc(Cl)c(Cl)cc32)cc1 | – | – | 0.909 µM | 6.8 µM | 1.81 | 4.59 | 2.22 µM | 7.61 µM | 2.7 | 17.2 | 3.27 µM | > 100
